Experimental data taken from US7166440B2, “2,4,5-trichlorophenoxyalkyl carboxylic acid and a method for determining dioxins using the same” (priority 2003, dated 2007).
Read-outs that look alike come from different tables or passages of the source.

Key:
[1] = system: anti-dioxin antibody (monoclonal antibody) to 1,2,3,7,8-PeCDF; type: binding, mouse; conditions: solid-phase antigen (IIa), antibody to 1,2,3,7,8-PeCDF
Protocol: (§1) First, the immune antigen or the compound (IIa) conjugated with BSA that was produced in Example 2 was diluted with PBS to 1 μg/ml, and divided into each well of a 96-well assay plate (manufactured by Costar, Cat. No. 3590) in an amount of 50 μl. Then, the plate was sealed and allowed to stand at room temperature for one hour. Then, each well was washed with PBS containing 0.005% of Tween 20 three times. Next, 300 μl of Block Ace (manufactured by Snow Brand Milk Products Co., Ltd.) diluted with distilled water to a concentration of 25% was supplied to each well, and the plate was sealed and allowed to stand at 37° C. for two hours. Each well was washed with PBS containing 0.005% of Tween 20 three times. Then, a 25 μl of the dioxin compound solution of a final concentration of 5×10^−7 M was added to each well. The dioxin compound solution was prepared by diluting the dioxin with a dilution solvent comprising 20% DMSO and 0.01% of Triton X100. As controls, a dilution solvent in an amount of 25 μl was added to each well. Immediately after the addition of the dioxin compound solution or the dilution solvent, 25 μl of an antibody solution diluted with PBS containing 1 mg/ml of BSA was added to each well. The assay plate was stand at room temperature for one hour with slightly shaking.
(§2) After washing with PBS containing 0.005% of Tween 20 three times, 50 μl of the diluted HRP-labeled goat anti-mouse IgG (H+L) antibody (produced by affinity purification) was added to each well. The diluted HRP-labeled antibody was prepared by diluting the purchased HRP-labeled antibody to 2000 times as much with 10% Block Ace. The plate was allowed to stand at room temperature for one hour, followed by washing with PBS containing 0.005% of Tween 20 three times. Then, 50 μl of a HRP substrate, TMB (manufactured by KPL Co., Ltd.), was added to each well and allowed to stand at room temperature for 5 to 10 min. Then, 5 μl of a 1 M phosphate solution was added to each well, and the absorbance at a wavelength of 455 nm (655 nm for the reference) was measured with a spectrophotometer for a microtiter. The reactivity was evaluated by obtaining the absorbance (B0) at the time when the dioxin compound is not added, which is a control (diluent) and the absorbance (B) at the time when the dioxin compound is added. The inhibition rate was measured based on the following equation. Inhibition rate={(B0−B)/B0}×100 (%)
An anti-dioxin antibody (monoclonal antibody) to 1,2,3,7,8-PeCDF is used as an antibody. A haptenized product of a solid-phase antigen 6-(2,4,5-trichlorophenoxy) hexanoic acid amide derivative (IIa) and the chlorine-containing organic compounds in Tables 2 and 3 were allowed to compete with each other to this anti-dioxin antibody so that a competitive reaction was effected in the same manner as in Example 3. Then, the cross-reactivity was examined.

[2] = system: monoclonal antibody of clone C-3 (anti-dioxin antibody); test: Competitive EIA: inhibition of binding of clone C-3 monoclonal antibody to solid-phase antigen by free dioxin; parameters: species or system mouse
Protocol: (§3) Using various monoclonal antibodies, the specificity of the monoclonal antibodies to dioxin isomers was examined. The monoclonal antibodies were prepared in the following manner. An antibody-producing cell was injected into the abdominal cavity of a pristane-pretreated mouse. Th ascites fluid in the abdominal cavity caused by the growth of the cells was collected, and then a monoclonal antibody was purified by affinity chromatography using a protein G-Sepharose (manufactured by BIO-RAD Co.) as a carrier. Using three antibody-producing clones C-1, C-2 and C-3, respective monoclonal antibodies were prepared. The clones C-1, C-2 and C-3 produce monoclonal antibodies with respect to dibenzodioxin having chlorine atom at the 2-, 3-, 7-, and 8-positions.
(§4) To evaluate the specificity of the monoclonal antibody was performed according to the following principles. A solid-phase antigen (competitor) and a free dioxin (ligand) are allowed to compete with each other with respect to a free monoclonal antibody (anti-dioxin antibody). If the reactivity of the monoclonal antibody and the dioxin is higher than that of the monoclonal antibody and the solid-phase antigen, the binding of the monoclonal antibody to the solid-phase antigen is reduced. This reduction of the binding of the monoclonal antibody to the solid-phase antigen can be measured by color development method. This phenomenon can be applied to evaluate the specificity.
as §1, §2
(§5) Evaluation was such that the larger this inhibition rate is, the higher the specificity of the anti-dioxin antibody to the dioxin compound.

[3] = system: monoclonal antibody of clone C-2 (anti-dioxin antibody); test: Competitive EIA: inhibition of binding of clone C-2 monoclonal antibody to solid-phase antigen by free dioxin; parameters: species or system mouse
Protocol: as §3, §4, §1, §2, §5

[4] = system: monoclonal antibody of clone C-1 (anti-dioxin antibody); test: Competitive EIA: inhibition of binding of clone C-1 monoclonal antibody to solid-phase antigen by free dioxin; parameters: species or system mouse
Protocol: as §3, §4, §1, §2, §5

[5] = toxicity equivalent factor of the dioxins used; cited from earlier work
[6] = solid-phase antigen * (haptenized product of 6-(2,4,5-trichlorophenoxy) hexanoic acid amide derivative IIa), dioxin compound 5×10^−7 M
[7] = solid-phase antigen immunogen 3, dioxin compound final concentration 5×10^−7 M
[8] = solid-phase antigen immunogen 2, dioxin compound final concentration 5×10^−7 M
[9] = solid-phase antigen immunogen 1, dioxin compound final concentration 5×10^−7 M

Structure (SMILES) | cross reaction ([1]; Table 2, dioxins having TEF) | Inhibition rate [2, 6] | Inhibition rate [2, 7] | Inhibition rate [3, 6] | Inhibition rate [3, 8] | Inhibition rate [4, 6] | Inhibition rate [4, 9] | TEF value [5] | cross reaction ([1]; Table 3, other chlorine-containing organic compounds and polycyclic aromatic hydrocarbons)
Clc1c(Cl)c(Cl)c2c(c1Cl)Oc1c(Cl)c(Cl)c(Cl)c(Cl)c1O2 [OCDD] | <0.1% | −3.7% | −0.4% | 9.4% | 0.1% | 1.6% | −2.5% | 0.0001 | 
Clc1cc2oc3cc(Cl)c(Cl)c(Cl)c3c2cc1Cl [1,2,3,7,8-PeCDF] | 100.0% | 23.2% | 0.5% | 68.6% | 17.5% | 27.1% | 11.8% | 0.05 | 100.0%
Clc1cc2c(oc3c(Cl)c(Cl)c(Cl)cc32)c(Cl)c1Cl [2,3,4,6,7,8-HxCDF] | 43.8% | 47.9% | 13.2% | 82.8% | 28.1% | 44.8% | 31.1% | 0.1 | 
Clc1cc2c(c(Cl)c1Cl)Oc1c(Cl)c(Cl)c(Cl)c(Cl)c1O2 [1,2,3,4,6,7,8-HpCDD] | 17.0% | 2.1% | 0.4% | −3.2% | −12.4% | 1.4% | 1.5% | 0.01 | 
